In US20070149580A1, “USE OF PEROXISOME PROLIFERATOR ACTIVATED RECEPTOR DELTA AGONISTS FOR THE TREATMENT OF MS AND OTHER DEMYELINATING DISEASES” (AVENTIS PHARMACEUTICALS INC., priority 2004, published 2007):

How the values were obtained:
[1] = target: human RXR receptor; test: Cellular human RXR receptor luciferase reporter assay; assay type: cell-based; conditions: Retinoid X receptor
Procedure: Determination of EC50 Values in the Cellular Human RXR Receptor Assay
Cell Based RXR Assay Protocol
To perform cell based assays a luciferase assay is performed in 96 well plates as follows: […]
• Aspirate medium from cells • Freeze plates at −20° C. (optional) • Thaw plates for 30 min (if necessary) • Add 50 μl Bright-Glo-Luciferase Assay Reagent (Promega, Cat. No. E2650) • Incubate for 10 min in the dark • Measure luminescence 2 sec per well (Wallac Microbeta) Data Analysis […]

[2] = test system: cultured rat oligodendrocytes; test: Quantitative PCR of MBP mRNA in cultured rat oligodendrocytes; assay type: cell-based; conditions: FIGS. 2 and 3
Description: • 1. Primary rat oligodendrocyte progenitor cells are obtained from the neocortex of newborn (postnatal days 2-3) rats or mice and are enriched, after removal of microglia, by mechanical separation from the astrocytic monolayer using a modification of the technique originally described by McCarthy and de Vellis (1980). • 2. Remove the meninges from neonatal rat brain and mechanically dissociate tissue. Plate cells on T75 flasks and feed cells with DMEM/F12+10% FBS. • 3. Collect oligodendrocytes growing on the astrocyte bed layer by shaking-off method fourteen days after the original prep date. Centrifuge the suspension and resuspend the cell pellet in serum free media (SFM; DMEM combined with 25 μg/ml transferring, 30 nM triiodothyronine, 20 nM hydrocortisone, 20 nM progesterone, 10 nM biotin, 1× trace elements, 30 nM selenium, 1 μg/ml putrescine, 0.1% BSA, 5 U/ml PenStrep, 10 μg/ml insulin) supplemented with the following growth factors: Platelet derived growth factor-AA (PDGF) and fibroblast growth factor-2 (FGF). • 4. Plate the cells on PDL-coated dishes and incubate at 37° C. with 6-7% CO2. • 5. Media components are replaced every 48 hr to keep the cells in a progenitor state. Progenitor Cell Passaging to Increase Cell Numbers for Screening Assays: • 1. […]
• 1. […] PPAR delta pathway member transcript expression is quantitated using Sybr Green PCR Master Mix. • 4. […]

| Structure (SMILES) | Human PPAR RXR EC50 [1] | MBP mRNA [2] |
| --- | --- | --- |
| Cc1cc(SCc2sc(-c3ccc(C(F)(F)F)cc3)nc2C)ccc1OCC(=O)O [Compound 1] | No increase | enhancement |
| CCCc1c(OCCCOc2ccc(OCC(=O)O)cc2)ccc(C(C)=O)c1O [Compound 2] | No increase | enhancement |
